Converted amounts (≈) assume the structure as drawn. Like-named read-outs stand apart in the source and are kept apart here.

For series [1] the following is noted: cited from earlier work.
On the set-up of series [2]: method as in PMID 26220249. The note with it: cited from earlier work.
Series [3] in a line: physchem. The note with it: adult fed state simulated gastric fluid (FeSSGF), milk-based, 37 °C, pH 5, fassgf or other biorelevant, thermodynamic from solid.
Series [4] can be described thus: physchem. The following applies: 37 °C, thermodynamic from solid.
Setting [5] is: Table 1, reference per cell, none given for mebendazole.
Setting [6] is: at least one of the newborn FeSSIF (Pnb-FeSSIF and Pnc-FeSSIF), previous solubility study.
The mark [7] stands for this setting: adult fasted state simulated gastric fluid (FaSSGF), pH 1.6, fassgf or other biorelevant.
Where [8] appears, read: adult fasted state simulated intestinal fluid (FaSSIF-V2), pH 6.5, fassif.
Setting [9] is: adult fed state simulated intestinal fluid (FeSSIF-V2), pH 5.8, fessif.

Consider `CC(C)(O)c1ccccc1CC[C@@H](SCC1(CC(=O)O)CC1)c1cccc(/C=C/c2ccc3ccc(Cl)cc3n2)c1` [Montelukast], for which the “pKa (basic)” value in series [1] (setting [5]) is recorded as 2.7. Besides, in series [1] (Table 1, reference per cell), the “pKa (acidic)” value is 5.8.
One may read the logP as a log measure of how a compound divides between an organic and an aqueous phase. `COC(=O)Nc1nc2ccc(C(=O)c3ccccc3)cc2[nH]1` [Mebendazole]: in series [1] (setting [5]), the lipophilicity (logP) is 2.80 and the “pKa (basic)” value was 3.5 (basic).
For `Nc1ccc(S(=O)(=O)c2ccc(N)cc2)cc1` [dapsone], in series [1] (no reference given), the lipophilicity (logP) is reported as 0.97.
For the compound `Nc1ccc(O)c(C(=O)O)c1` [Mesalazine], in series [1] (setting [5]), the logP is 0.98 [8] and the “pKa (basic)” value was 5.69. In series [1] (Table 1, reference per cell), the “pKa (acidic)” value is 2.3. Moreover, the “pKa (basic)” value in series [1] (no reference given) is 5.7.
`COC1=CC(=O)C[C@@H](C)[C@]12Oc1c(Cl)c(OC)cc(OC)c1C2=O` [griseofulvin]: in series [2] (setting [6]), the “Sp/Sa (%)” value is recorded as “below 80 % of adult values”.
As a reminder, the solubility is how much of the substance goes into solution per volume. High values mean much dissolved substance, low ones little dissolved substance. Turning to `OCCN(CCO)c1nc(N2CCCCC2)c2nc(N(CCO)CCO)nc(N3CCCCC3)c2n1` [Dipyridamole], the “pKa (basic)” value in series [1] (setting [5]) was 5.7–6.4 (basic) [19, 20]. In “physchem [3]”, the solubility at 48 h is 158 ± 7.22 µg/mL (≈ 314 µM). Further, the solubility at 24 h was 11500 ± 570 µg/mL (≈ 22800 µM) in “physchem [4]” (setting [7]), 11.9 ± 0.17 µg/mL (≈ 23.5 µM) in “physchem [4]” (setting [8]) and 81.4 ± 1.74 µg/mL (≈ 161 µM) in “physchem [4]” (setting [9]). For the same compound, the “solubility in pediatric vs adult medium” value by setting is: (Pnc-FeSSGF (cow's milk formula) vs adult FeSSGF) “significantly lower solubility”; (Pns-FeSSGF (soy formula) vs adult FeSSGF) “significantly higher solubility”; (all pediatric fed intestinal media (Pnb-FeSSIF, Pnc-FeSSIF, Pi-FeSSIF) vs adult FeSSIF-V2) “significant solubility differences”; (pediatric fasted gastric fluids (Pn-FaSSGF and Pi-FaSSGF) vs adult FaSSGF, ANOVA p ≤ 0.05) “higher solubility in both pediatric gastric fluids; however, these differences were not statistically significant”.
Turning to `O=C1CN(/N=C/c2ccc([N+](=O)[O-])o2)C(=O)N1` [Nitrofurantoin], in series [1] (Table 1, reference per cell), the “pKa (acidic)” value is 7.2 (acidic) [13]. In “physchem [3]”, this compound had a solubility at 48 h of 390 ± 6.35 µg/mL (≈ 1640 µM). Further, the solubility at 24 h was 196 ± 11.7 µg/mL (≈ 823 µM) in the series “physchem [4]” (setting [7]), 215.7 ± 1.96 µg/mL (≈ 906 µM) in “physchem [4]” (setting [8]) and 209 ± 3.22 µg/mL (≈ 879 µM) in “physchem [4]” (setting [9]). The “Sp/Sa (%) vs 80–[…] risk assessment limits” value (all pediatric media tested) is listed as “within the 80–125% risk assessment limits”. Further, the “solubility differences between adults and pediatrics” value (all pediatric media tested) is reported as “no significant solubility differences”.
Consider `O=C1NC(=O)C(c2ccccc2)(c2ccccc2)N1` [phenytoin], for which the “Sp/Sa (%)” value in series [2] (Pnc-FeSSIF, compound of the previous study) is “significant lower”; in series [2] (setting [6]) it was “below 80 % of adult values”.
For the compound `NC(=O)N1c2ccccc2C=Cc2ccccc21` [carbamazepine], in series [2] (fasted gastric fluids, previous study), the “solubility in pediatric gastric fluids in comparison to adult gastric fluids” value was “statistical different (p ≤ 0.05) and outside the purported bioequivalence criterion”.
Regarding `COc1ccc2c(c1)c(CC(=O)O)c(C)n2C(=O)c1ccc(Cl)cc1` [indomethacin], in series [1] (no reference given), the logP is on record as 4.3. Further, in series [2] (newborn gastric media (Pn-FaSSGF), previous study), the “Sp/Sa (%) vs 80–[…] threshold” value is listed as “outside the limits of the 80–125% threshold”.

Values taken from article PMC8880315, “Understanding the Impact of Age-Related Changes in Pediatric GI Solubility by Multivariate Data Analysis” (Pharmaceutics, 2022).
